A word on the IC50: it is the concentration needed to halve the response being measured.

SMILES strings stand for the structures. Like-named read-outs stand apart in the source and are kept apart here.

The results in this text go back to patent US10736908B2, “Antiviral aryl-amide phosphodiamide compounds” (Merck Sharp & Dohme Corp., priority 2016, dated 2020).

A short description of data set [1]: Prodrug stability assay in bio-relevant media (FaSSIF with Pancreatin). Type of data set: in vitro ADME. The conditions noted are these: HPLC peak area of prodrug at 5 h divided by that at 0 h; 0.5 mg/mL Pancreatin in FaSSIF, 37° C. On the procedure:
Prodrug Stability Assay in Bio-Relevant Media
The following assay was employed to evaluate the stability of the prodrugs in simulated gastrointestinal tract conditions. Preparation of fasted state simulated intestinal fluid (FaSSIF) using Phares SIF Powder was carried out according to protocols from Phare Drug Delivery AG (Baselland, Switzerland). For sample preparation, 10 μL stock solutions (10 mM) of prodrug substance in DMSO was added to 990 μL of 0.5 mg/mL Pancreatin solution (Fisher CAS #8049-47˜6) in FaSSIF. Two samples were prepared for each compound. If the sample was a clear solution, it was directly analyzed by HPLC. If the sample was not clear, the sample was diluted with 100% MeCN, maintained at 37° C. and observed 5 h later. If the sample was clear, HPLC analysis was directly performed. If the sample was still not clear, the sample was diluted with 100% ACN and assayed by HPLC. All the samples were vortexed for 3 min and observed before injection. For the diluted samples, the area is multiplied by a dilution factor when the data is analyzed. The analysis was carried out with an Agilent 1100 series HPLC with autosampler. The column was a Poroshell 120 EC-C18, 4.6×50 mm, 2.7 μm. The flow rate was 1.8 mL/min, and the injection volume was 5 or 10 μL. UV detection was in the range 210-400 nm. The mobile phase consisted of solvent A (water plus 10 mM tetrabutylammonium bromide) and solvent B (acetonitrile) with a gradient of: 90% solvent A at 0 min, changing to 95% solvent B over 6 min, maintaining for 1.5 min, then reverting to 90% solvent A over 1.6 min. The HPLC peak area of the prodrug at 5 h was divided by the HPLC peak area of the prodrug at 0 h, to generate the % claimed parent ratio, which is summarized in Table 2 for gastrointestinal (GI) Tract stability.

The test system of a further data set is HIV-1 (H9/IIIB strain). Kind of data set: Multiple round HIV-1 infection assay (Viking assay) in MT4-GFP cells. It counts as cell-based. The settings on record: HIV-1 replication in MT4-GFP cells. As for the experimental part:
Assessing Antiviral Potency in a Multiple Round HIV-1 Infection Assay (Viking Assay)
The antiviral activity of the tenofovir prodrugs of the Examples herein was assessed in an assay that measures the rate of replication of HIV in cell culture, termed the Viking assay (VIral KINetics in Green cells) and performed as follows. HIV-1 replication was monitored using MT4-gag-GFP clone D3 (hereafter designated MT4-GFP), which are MT-4 cells modified to harbor a GFP reporter gene, the expression of which is dependent on the HIV-1 expressed proteins tat and rev. Productive infection of an MT4-GFP cell with HIV-1 results in GFP expression approximately 24 h post-infection. MT4-GFP cells were maintained at 37° C./5% CO2/90% relative humidity in RPMI 1640 supplemented with 10% fetal bovine serum, 100 U/ml penicillin/streptomycin, and 400 μg/ml G418 to maintain the reporter gene. For infections, MT4-GFP cells were placed in the same medium lacking G418 and infected overnight with HIV-1 (H9/IIIB strain) virus at an approximate multiplicity of infection of 0.01 in the same incubation conditions. […] Compound plates were prepared by dispensing compounds dissolved in DMSO into wells of 384 well poly-D-lysine-coated plates (0.2 μl/well) using an ECHO acoustic dispenser. Each compound was tested in a 10-point serial 3-fold dilution (typical final concentrations: 8.4 μM-0.42 nM). Controls included no inhibitor (DMSO only) and a combination of three antiviral agents (efavirenz, indinavir, an in-house integrase strand transfer inhibitor at final concentrations of 4 μM each). Cells were added (50 μL/well) to compound plates and the infected cells were maintained at 37° C./5% CO2/90% relative humidity.
Infected cells were quantified at two time points, ˜48 h and ˜72 h post-infection, by counting the number of green cells in each well using an Acumen eX3 scanner. The increase in the number of green cells over ˜24 h period gives the reproductive ratio, R0, which is typically 5-15 and has been shown experimentally to be in logarithmic phase (data not shown). Inhibition of R0 is calculated for each well, and IC50s determined by non-linear 4-parameter curve fitting.

The mark [2] stands for this setting: 50% NHS (normal human serum), read-out: Viking, IC50 (50% NHS).
Where [3] appears, read: head prints 100% NHS (normal human serum), read-out: Viking, IC50 (100% NHS).
The mark [4] stands for this setting: Human immunodeficiency virus 1, IIIB, head prints 100% NHS (normal human serum), read-out: Viking, IC50 (100% NHS).
[5] abbreviates: Human immunodeficiency virus 1, IIIB, 50% NHS (normal human serum), read-out: Viking, IC50 (50% NHS).

Regarding `CCCCCOC(=O)C(C)(C)NP(=O)(CO[C@H](C)Cn1cnc2c(N)ncnc21)NC(=O)c1ccc(Cl)cc1` (single isomer, unassigned) [Example 3B], the “GI Tract stability” value in data set [1] is listed as 75.98%. Besides, the values for the concentration for half-maximal inhibition (IC50) with HIV-1 (H9/IIIB strain) (setting [2]) and in the data set on HIV-1 (H9/IIIB strain) (setting [3]) were 10.9 nM and 2.3 nM, respectively.

Regarding `CCCCCOC(=O)C(C)(C)NP(=O)(CO[C@H](C)Cn1cnc2c(N)ncnc21)NC(=O)c1ccc(C)cc1` (single isomer, unassigned) [Example 18B], the “GI Tract stability” value in data set [1] is recorded as 92.38%. Besides, the IC50 in the data set with HIV-1 (H9/IIIB strain) (setting [2]) was 10.5 nM; in the data set with HIV-1 (H9/IIIB strain) (setting [3]), 2 nM.

`CCCCCOC(=O)C(C)(C)NP(=O)(CO[C@H](C)Cn1cnc2c(N)ncnc21)NC(=O)c1ccc(F)cc1` (single isomer, unassigned) [Example 11A]: the “GI Tract stability” value in data set [1] is 72.61%. Also, the values for the half-inhibitory concentration (IC50) with HIV-1 (H9/IIIB strain) (setting [2]) and in the data set on HIV-1 (H9/IIIB strain) (setting [4]) were 15 nM and 4.1 nM, respectively.

Turning to `CCCCCOC(=O)C(C)(C)NP(=O)(CO[C@H](C)Cn1cnc2c(N)ncnc21)NC(=O)c1cccs1` (single isomer, unassigned) [Example 15A], in data set [1], the “GI Tract stability” value is given as 95.44%. Also, the results for the concentration for half-maximal inhibition (IC50) in the data set on HIV-1 (H9/IIIB strain) (setting [5]) and with HIV-1 (H9/IIIB strain) (setting [4]) were 34.1 nM and 8.4 nM, respectively.

Consider `CC(C)OC(=O)C(C)(C)NP(=O)(CO[C@H](C)Cn1cnc2c(N)ncnc21)NC(=O)c1ccc(Cl)cc1` (single isomer, unassigned) [Example 1B], for which the “GI Tract stability” value in data set [1] came to 95.48%. Also, the IC50 in the data set on HIV-1 (H9/IIIB strain) (setting [5]) stood at 24.4 nM; with HIV-1 (H9/IIIB strain) (setting [4]) it was 6.9 nM.

As for `C[C@H](Cn1cnc2c(N)ncnc21)OCP(=O)(NC(=O)c1ccc(Cl)cc1)NC(C)(C)C(=O)OC1CCOCC1` (single isomer, unassigned) [Example 9B], in data set [1], the “GI Tract stability” value amounted to 99.1%. Moreover, the half-inhibitory concentration (IC50) in the data set on HIV-1 (H9/IIIB strain) (setting [2]) was found to be 74.8 nM; in the data set on HIV-1 (H9/IIIB strain) (setting [3]), 16.9 nM.

Turning to `CCCOC(=O)C(C)(C)NP(=O)(CO[C@H](C)Cn1cnc2c(N)ncnc21)NC(=O)c1ccc(Cl)cc1` (single isomer, unassigned) [Example 4B], the “GI Tract stability” value in data set [1] is reported as 84.76%. Besides, the concentration for half-maximal inhibition (IC50) was determined as 17.6 nM with HIV-1 (H9/IIIB strain) (setting [2]) and 3.6 nM in the data set on HIV-1 (H9/IIIB strain) (setting [3]).

With `CC(C)OC(=O)C(C)(C)NP(=O)(CO[C@H](C)Cn1cnc2c(N)ncnc21)NC(=O)c1ccc(F)cc1` (single isomer, unassigned) [Example 10B], the “GI Tract stability” value in data set [1] was found to be 99.96%. Moreover, the half-maximal inhibitory concentration (IC50) is 89.8 nM with HIV-1 (H9/IIIB strain) (setting [2]) and 25.7 nM with HIV-1 (H9/IIIB strain) (setting [3]).

As to `CCCCCOC(=O)C(C)(C)NP(=O)(CO[C@H](C)Cn1cnc2c(N)ncnc21)NC(=O)c1ccc(Cl)cc1` (single isomer, unassigned) [Example 3A], the “GI Tract stability” value in data set [1] was 99.9%. For the same compound, the concentration for half-maximal inhibition (IC50) with HIV-1 (H9/IIIB strain) (setting [2]) turned out to be 33.2 nM; in the data set on HIV-1 (H9/IIIB strain) (setting [3]) it was 5.1 nM.

For `C[C@H](Cn1cnc2c(N)ncnc21)OCP(=O)(NC(=O)c1ccc(Cl)cc1)NC(C)(C)C(=O)OC1CCC1` (single isomer, unassigned) [Example 6B], the “GI Tract stability” value in data set [1] stood at 90.33%. Further, the figures for the concentration for half-maximal inhibition (IC50) in the data set with HIV-1 (H9/IIIB strain) (setting [2]) and with HIV-1 (H9/IIIB strain) (setting [3]) were 13.5 nM and 4.1 nM, respectively.

As for `CCCCCOC(=O)C(C)(C)NP(=O)(CO[C@H](C)Cn1cnc2c(N)ncnc21)NC(=O)c1cccs1` (single isomer, unassigned) [Example 15B], the IC50 worked out at 29.8 nM in the data set with HIV-1 (H9/IIIB strain) (setting [2]) and 8.1 nM in the data set with HIV-1 (H9/IIIB strain) (setting [3]).

As for `CCCCCOC(=O)C(C)(C)NP(=O)(CO[C@H](C)Cn1cnc2c(N)ncnc21)NC(=O)c1ccc(C)cc1` (single isomer, unassigned) [Example 18A], the figures for the IC50 in the data set with HIV-1 (H9/IIIB strain) (setting [2]) and in the data set on HIV-1 (H9/IIIB strain) (setting [3]) were 35.4 nM and 9 nM, respectively.

As for `CCCOC(=O)C(C)(C)NP(=O)(CO[C@H](C)Cn1cnc2c(N)ncnc21)NC(=S)c1ccc(Cl)cc1` (stereo partly drawn) [Example 19, propyl 2-((((((R)-1-(6-amino-9H-purin-9-yl)propan-2-yl)oxy)methyl)(4-chlorophenylthioamido)phosphoryl)amino)-2-methylpropanoate], the IC50 in the data set with HIV-1 (H9/IIIB strain) (setting [5]) was found to be 347 nM; with HIV-1 (H9/IIIB strain) (setting [4]) it was 32.1 nM.

For `C[C@H](Cn1cnc2c(N)ncnc21)OCP(=O)(NC(=O)c1ccc(Cl)cc1)NC(C)(C)C(=O)OC1CCCC1` (single isomer, unassigned) [Example 7A], the values for the 50% inhibitory concentration (IC50) in the data set with HIV-1 (H9/IIIB strain) (setting [2]) and in the data set on HIV-1 (H9/IIIB strain) (setting [3]) were 31.7 nM and 8.4 nM, respectively.

In the case of `CCCOC(=O)C(C)(C)NP(=O)(CO[C@H](C)Cn1cnc2c(N)ncnc21)NC(=O)c1ccc(OC)cc1` (single isomer, unassigned) [Example 2A], the IC50 is 93.2 nM in the data set with HIV-1 (H9/IIIB strain) (setting [5]) and 32.4 nM with HIV-1 (H9/IIIB strain) (setting [4]).
